Format in all cases: in vivo
In one assay the test system is skeletal muscle of mice. The assay is described as follows: Phosphocreatine and creatine levels in dissected leg skeletal muscle after continuous interval electrical stimulation (Experiment 1). Conditions: for Creatine (CR) level in skeletal muscle / Phosphocreatine (PCr) level in skeletal muscle / Total creatine (TCr) level in skeletal muscle: 2 weeks diet: CR 5% creatine monohydrate, Ty+CR 1% tyrosol and 5% creatine monohydrate, mean±SE; for Total creatine (TCr) level in skeletal muscle: sum of PCr and CR. On the procedure: Animal Experiment: Thirty 8-week-old mice were prepared and acclimated to the laboratory environment for one week before being randomly divided into three groups. Control Group: Normal diet with no added active ingredients, serving as the control group. CR Group: Normal diet supplemented with 5% creatine monohydrate. Ty+CR Group: Normal diet supplemented with 1% tyrosol and 5% creatine monohydrate.
After two weeks of feeding, the mice were anesthetized, and the leg skeletal muscles were dissected, showing clear connective tissue without blood. For muscle contraction tests via electrical stimulation, the muscles were first incubated in a specific physiological buffer solution for 10 minutes to recover from dissection. The muscles were then clamped with aluminum forceps and stimulated using platinum electrodes and a capacitor alternating polarity discharge.
The muscles were subjected to 250 ms electrical stimulation with six intervals, each interval progressively shortened from 4 s to 1 s. After six interval stimulations, a 1-minute observation period followed before the next round, totaling four rounds. The left and right leg muscles of each mouse were labeled, and subjected to the aforementioned electrical stimulation test.
Phosphocreatine (PCr) and creatine (CR) levels were immediately measured in the dissected right leg muscles after the electrical stimulation test. The dissected left leg muscles of all groups were measured for phosphocreatine and creatine levels 5 minutes after the test. Total creatine (TCr) levels were the sum of phosphocreatine and creatine levels. Standard fluorescence assay was used to determine phosphocreatine and creatine levels in muscle samples extracted with perchloric acid precipitation.
Note: Values are expressed as mean±SE, in mmol/kg dry weight.

Assay [1] has as its system mice. The assay is described as follows: Grip strength test during continuous high-intensity exercise (Experiment 2). Conditions: for Percentage change of muscle strength (grip strength relative to first exercise): gavage daily 4 weeks: Ty 75 mg/kg tyrosol, CR 260 mg/kg creatine monohydrate, Ty+CR 75 mg/kg+260 mg/kg. On the procedure: Animal Experiment 1: Six-week-old mice were used. After one week of acclimation to the environment, the mice were randomly divided into the following groups:
(§1) Control Group: Normal diet, serving as the control group.
(§2) Ty Group: Normal diet, with 75 mg/kg tyrosol administered by gavage daily.
(§3) CR Group: Normal diet, with 260 mg/kg creatine monohydrate administered by gavage daily.
(§4) Ty+CR Group: Normal diet, with 75 mg/kg tyrosol+260 mg/kg creatine monohydrate administered by gavage daily.
(§5) This regimen continued for 4 weeks. The first grip strength test was conducted 30 minutes after the last gavage. The grip strength of the mice's limbs was measured using a grip strength meter. After a 1-hour rest, the mice underwent the first exhaustive swimming exercise. […] The mice were then placed in a weighted swimming tank at a water temperature of 30±1° C. for the exhaustive swimming test. Exhaustion was considered if the mice touched the bottom of the tank three consecutive times within 30 seconds. The detector recorded the mice's bottom-touching instances, and upon determining exhaustion, the swimming tank automatically lifted the mice, recording the exhaustive swimming time.
(§6) 24 hours after the first swimming exercise, the second grip strength test and exhaustive swimming exercise were conducted using the same methods, recording grip strength data and exhaustive swimming time. The third and fourth grip strength tests and exhaustive swimming exercises were conducted 24 hours after the previous exercise, recording the respective data. The gavage regimen remained unchanged during the intervals.
Note: The data compared each group's grip strength in subsequent exercises to their grip strength in the first exercise, reflected the difference in grip strength from the initial value.

Assay [2] relates to mice. Kind of assay: Weighted exhaustive swimming test during continuous high-intensity exercise (Experiment 2). The conditions noted are these: for Percentage change of exhaustive exercise time (relative to first exercise): gavage daily 4 weeks: Ty 75 mg/kg tyrosol, CR 260 mg/kg creatine monohydrate, Ty+CR 75 mg/kg+260 mg/kg; for Exhaustive swimming exercise time compared to control group, FIG. 2 / Trend of exhaustive swimming exercise time during continuous exercise, FIG. 2: Ty 75 mg/kg, CR 260 mg/kg, Ty+CR 75+260 mg/kg; for Exhaustive swimming exercise time compared to control group, FIG. 2: 4 weeks; for Trend of exhaustive swimming exercise time during continuous exercise, FIG. 2: four exercises 24 h apart. As to the method: After one week of acclimation to the environment, the mice were randomly divided into the following groups:
as §1, §2, §3, §4, §5, §6
Note: The data compared each group's exhaustive exercise time in subsequent exercises to their exhaustive exercise time in the first exercise, reflected the difference in exhaustive exercise time from the initial value.

Assay [3] has as its system mice. Kind of assay: Grip strength test during continuous high-intensity exercise (Experiment 3). On the procedure:
(§7) Animal Experiment 2: Six-week-old mice were used. After one week of acclimation to the environment, the mice were randomly divided into the following groups:
as §1
(§8) Ty 1 Group: Normal diet, with 2.6 mg/kg tyrosol administered by gavage daily.
(§9) CR 1-3 Groups: Normal diet, with 65 mg/kg, 390 mg/kg, and 1300 mg/kg creatine monohydrate administered by gavage daily.
(§10) Ty+CR 1-4 Groups: Normal diet, with 2.6 mg/kg tyrosol+65 mg/kg creatine monohydrate, 130 mg/kg tyrosol+130 mg/kg creatine monohydrate, 390 mg/kg tyrosol+1300 mg/kg creatine monohydrate, and 2.6 mg/kg tyrosol+1300 mg/kg creatine monohydrate administered by gavage daily.
With the exception of groups Ty 1, CR 1, and Ty+CR 1 which were fed for 8 weeks, all other dosing groups were fed for 4 weeks, with one daily gavage. Groups CR 3, Ty+CR 3, and Ty+CR 4 received their daily gavage dose in two separate administrations each day. Half of the control group was fed for 4 weeks, and the other half for 8 weeks. The first grip strength test was conducted 30 minutes after the last gavage, followed by the first exhaustive swimming exercise after a 1-hour rest. Grip strength and swimming exercise methods were the same as previously described. 24 hours after the first swimming exercise, the second grip strength test and exhaustive swimming exercise were conducted using the same methods, recording grip strength data and exhaustive swimming time. The third and fourth grip strength tests and exhaustive swimming exercises were conducted 24 hours after the previous exhaustive swimming exercise, recording grip strength data and exhaustive swimming time. Groups CR 3 and Ty+CR 4 underwent up to the eighth grip strength test and exhaustive swimming exercise, maintaining the same exercise methods. During the intervals, the gavage regimen for each group remained unchanged.

Assay [4] deals with mice. Kind of assay: Weighted exhaustive swimming test during continuous high-intensity exercise (Experiment 3). As to the method:
as §7, §1, §8, §9, §10
With the exception of groups Ty 1, CR 1, and Ty+CR 1 which were fed for 8 weeks, all other dosing groups were fed for 4 weeks, with one daily gavage. Groups CR 3, Ty+CR 3, and Ty+CR 4 received their daily gavage dose in two separate administrations each day. Half of the control group was fed for 4 weeks, and the other half for 8 weeks. The first grip strength test was conducted 30 minutes after the last gavage, followed by the first exhaustive swimming exercise after a 1-hour rest. Grip strength and swimming exercise methods were the same as previously described. […]

For assay [5], the system named is mice. The assay is described as follows: Grip strength test during continuous high-intensity exercise (Experiment 2). The conditions noted are these: first grip strength test; Ty 75 mg/kg, CR 260 mg/kg, Ty+CR 75+260 mg/kg, 4 weeks.
Setting [6] is: 5 min later after electrical stimulation.
The mark [7] stands for this setting: immediately after electrical stimulation.
Where [8] appears, read: CR 1: 65 mg/kg creatine monohydrate, Ty+CR 1: 2.6 mg/kg tyrosol+65 mg/kg creatine monohydrate, 8 weeks.

SMILES strings stand for the structures.

For `CN(CC(=O)O)C(=N)N.O` [CR, creatine monohydrate], the “Creatine (CR) level in skeletal muscle” value in the assay on skeletal muscle of mice (setting [6]) worked out at 22.7 ± 2.8 mmol/kg dry weight; in the assay on skeletal muscle of mice (setting [7]) it was 49.2 ± 3.7 mmol/kg dry weight. The results for the “Phosphocreatine (PCr) level in skeletal muscle” value in the assay with skeletal muscle of mice (setting [6]) and with skeletal muscle of mice (setting [7]) were 39.7 ± 2.2 mmol/kg dry weight and 13.4 ± 1.2 mmol/kg dry weight, respectively. For the same molecule, the “Total creatine (TCr) level in skeletal muscle” value came to 62.4 ± 3.0 mmol/kg dry weight with skeletal muscle of mice (setting [6]) and 62.6 ± 4.0 mmol/kg dry weight with skeletal muscle of mice (setting [7]). For the same molecule, in the assay with skeletal muscle of mice (immediate vs 5-min-later data within each group), the “Decrease of creatine levels 5 minutes after end of muscle contraction (creatine conversion)” value is 53.86%. The “Levels of creatine, phosphocreatine and total creatine compared to control group” value in the assay on skeletal muscle of mice (immediately after stimulation or 5 minutes later) is reported as “higher than those in the control group”. Besides, the “Percentage change of muscle strength (grip strength relative to first exercise)” value came to 1 in the assay on mice [1] (First exercise), 76.10% in the assay on mice [1] (Fourth exercise), 89.24% with mice [1] (Second exercise) and 83.81% in the assay on mice [1] (Third exercise). In addition, the “Trend of muscle strength (grip strength) in subsequent exercises, FIG. 1” value with mice [1] (four exercises 24 h apart, CR 260 mg/kg, Ty+CR 75+260 mg/kg) was “decline rate in the creatine group was also rapid”. The “Percentage change of exhaustive exercise time (relative to first exercise)” value in the assay on mice [2] (First exercise) was 1; in the assay with mice [2] (Fourth exercise) it was 81.88%; in the assay with mice [2] (Second exercise), 95.26%; in the assay on mice [2] (Third exercise), 88.10%. For the same molecule, in the assay on mice [2], the “Exhaustive swimming exercise time compared to control group, FIG. 2” value is listed as “did not improve the endurance of the mice at the beginning”. The “Trend of exhaustive swimming exercise time during continuous exercise, FIG. 2” value with mice [2] is recorded as “declined to varying degrees”. In the assay with mice [3] (setting [8]), the “Muscle strength (grip strength) compared to control group, FIG. 4” value is “significantly increased the muscle strength of the mice”. The “Muscle strength (grip strength) compared to control group, FIG. 3” value in the assay on mice [3] (CR 2: 390 mg/kg creatine monohydrate, Ty+CR 2: 130 mg/kg tyrosol+130 mg/kg creatine monohydrate, 4 weeks) is on record as “significantly higher than that in the control group”. Moreover, in the assay on mice [3] (CR 2: 390 mg/kg creatine monohydrate, Ty+CR 2: 130 mg/kg tyrosol+130 mg/kg creatine monohydrate, four exercises), the “Trend of muscle strength (grip strength) during continuous exercise, FIG. 3” value is recorded as “marked decline in muscle strength”. The “Endurance time (exhaustive swimming) compared to control group, FIG. 6” value in the assay with mice [4] (setting [8]) is listed as “did not improve the endurance time of mice”. Also, the “Endurance (exhaustive swimming time), FIG. 5” value with mice [4] (CR 2: 390 mg/kg creatine monohydrate, 4 weeks) is “able to enhance the endurance of mice and prolong exercise time”. In the assay on mice [5], the “Muscle strength (grip strength) compared to control group, FIG. 1” value was “significantly increased compared to the control group”.

Take `OCCc1ccc(O)cc1` [Ty, tyrosol]: the “Percentage change of muscle strength (grip strength relative to first exercise)” value with mice [1] (First exercise) is reported as 1; with mice [1] (Fourth exercise), 85.05%; in the assay on mice [1] (Second exercise) it was 97.40%; with mice [1] (Third exercise), 96.55%. Also, the “Percentage change of exhaustive exercise time (relative to first exercise)” value with mice [2] (Fourth exercise) is 88.45%; in the assay with mice [2] (Second exercise), 97.13%; with mice [2] (Third exercise), 94.54%. In addition, the “Exhaustive swimming exercise time compared to control group, FIG. 2” value in the assay on mice [2] is on record as “significantly higher than that of the control group mice”. Further, in the assay with mice [2], the “Trend of exhaustive swimming exercise time during continuous exercise, FIG. 2” value is recorded as “declined to varying degrees”. The “Muscle strength (grip strength) compared to control group, FIG. 1” value with mice [5] is reported as “did not show a significant increase in muscle strength”.

Values taken from patent publication US12390425B1, “Use of tyrosol as a physiological enhancer of creatine and its application in continuous high intensity exercise” (MolTek Nutrition Co., Ltd, priority 2024, dated 2025).
